Here are results for twelve molecules from patent US20130310387A1, “Monocyclic Heteroaryl Cycloalkyldiamine Derivatives” (NOVARTIS AG, priority 2012, published 2013).

In data set [1] the target is Syk (2-635) (KSYK_HUMAN, P43405) (Homo sapiens, UniProt P43405). Description: Syk enzyme assay (chip based microfluidic mobility shift assay). It counts as biochemical. The note with it: 4 μM ATP, 4 nM Syk, 60 minutes at 30° C. As for the experimental part:
A number of compounds of the present invention were assayed in a chip based microfluidic mobilitiy shift assay. All assays were performed in 384 well microtiter plates. Each assay plate contained 8-point serial dilutions for 40 test compounds, as well as four 8-point serial dilutions of staurosporine as reference compound, plus 16 high- and 16 low controls. Liquid handling and incubation steps were done on a Thermo CatX workstation equipped with a Innovadyne Nanodrop Express. Between pipetting steps, tips were cleaned in wash cycles using wash buffer. The assay plates were prepared by addition of 50 nl per well of compound solution in 90% DMSO. […] Kinase reactions were incubated at 30° C. for 60 minutes and subsequently terminated by addition of 16 μl per well of stop solution (100 mM HEPES pH 7.5, 5% DMSO, 0.1% Caliper coating reagent, 10 mM EDTA, and 0.015% Brij35). Plates with terminated kinase reactions were transferred to the Caliper LC3000 workstations for reading. Phosphorylated and unphosphorylated peptides were separated using the Caliper microfluidic mobility shift technology. Briefly, samples from terminated kinase reactions were applied to the chip. Analytes are transported through the chip by constant buffer flow and the migration of the substrate peptide is monitored by the fluorescence signal of its label. Phosphorylated peptide (product) and unphosphorylated peptide (substrate) are separated in an electric field by their charge/mass ratio. Kinase activities were calculated from the amounts of formed phospho-peptide. […] values were determined from percent inhibition values at different compound concentrations by non-linear regression analysis.
Test compounds were dissolved in DMSO (10 mM) and transferred into 1.4 mL flat bottom or V-shaped Matrix tubes carrying a unique 2D matrix. The stock solutions were stored at […] if not used immediately. For the test procedure the vials were defrosted and identified by a scanner whereby a working sheet was generated that guided the subsequent working steps.
Compound dilutions were made in 96 well plates. This format enabled the assay of maximally 40 individual test compounds at 8 concentrations (single points) including 4 reference compounds. The dilution protocol included the production of “pre-dilution plates”, “master plates” and “assay plates”.
96 polypropylene well plates were used as pre-dilution plates. A total of 4 pre-dilution plates were prepared including 10 test compounds each on the plate positions A1-A10, one standard compound at A11 and one DMSO control at A12. All dilution steps were done on a HamiltonSTAR robot.
30 μL of individual compound dilutions including standard compound and controls of the 4 “pre-dilution plates” were transferred into a 384 “master plate” including the following concentrations 1′810, 362, 72.5, […], 14.5, 2.9, 0.58 and 0.12 μM, respectively in 90% of DMSO.
Identical “assay plates” were then prepared by pipetting […] each of compound dilutions of the “master plates” into 384-well “assay plates” by means of a HummingBird 384-channel dispenser. These plates were used directly for the assay which was performed in a total volume of 9.05 μL. This led to a final compound concentration of 10, 2.0, 0.4, 0.08, 0.016, 0.0032, 0.00064 and 0.000128 μM and a final DMSO concentration of 0.5% in the assay.

For data set [2], the system named is SLP-76 phosphorylation in human whole blood monocytes. Description: FcR stimulation-induced SLP-76 phosphorylation in human whole blood monocytes. It counts as cell-based. The following applies: Monocyte, 5 min, anti CD32 stimulation 5 min, flow cytometry, read-out: Fc Recepor stimulation induced SLP-76 phosphorylation in human whole blood monocytes, IC50. From the text:
After lysis of erythrocytes and washings, the cell pellet was permeabilized with ice-cold methanol 90%. The permeabilized cells were washed and stained with anti CD14 (eBioscience) to detect monocytes and anti P-SLP76 ([…]) (BD Biosciences) and quantified by flow cytometry.
Background: Flow cytometry measures light scatter and fluorescence of single cells or particles in a stream.

Data set [3] relates to phosphorylation of BLNK in Ramos B cells. The data set can be described thus: Anti IgM-induced phosphorylation of BLNK in Ramos B cells. It is filed as cell-based. The note with it: Homo sapiens, 0.25 h, anti IgM 15 min, flow cytometry anti-BLNK (pY84). As for the experimental part: Anti IgM-induced phosphorylation of BLNK (BLNK=B cell linker (SLP65=SH2 domain containing leukocyte protein of 65 kDa)) in Ramos B cells: Ramos B cells in a volume of 25 μl were incubated with 25 μl of the compound solution at 2-fold the desired final concentration for 30 min. at 37° C. Then 50 μL anti IgM was added, mixed and incubated for 15 min. at 37° C. In each experiment 8-fold serial dilutions of compounds were tested. The stimulation was stopped by addition of 100 μL/well of PFA (para formaldehyde) I PBS (phosphate buffered saline) (final conc. 2% PFA) for fixation and incubated for 15 min. at 37° C., then centrifuged at 1300 rpm for 3 min and permeabilized by resuspending the cell pellet in 100 μL methanol 90% and further incubated for 30 min at 4° C. The cells were then washed and phosphoproteins were detected by flow cytometry using fluorescently labeled anti-BLNK ([…]) (BD Biosciences).

The target in data set [4] is T1, hERG channel (Homo sapiens, UniProt Q12809).
T1 construct: host or cells: HEK293
T1 sequence (Q12809 whole entry): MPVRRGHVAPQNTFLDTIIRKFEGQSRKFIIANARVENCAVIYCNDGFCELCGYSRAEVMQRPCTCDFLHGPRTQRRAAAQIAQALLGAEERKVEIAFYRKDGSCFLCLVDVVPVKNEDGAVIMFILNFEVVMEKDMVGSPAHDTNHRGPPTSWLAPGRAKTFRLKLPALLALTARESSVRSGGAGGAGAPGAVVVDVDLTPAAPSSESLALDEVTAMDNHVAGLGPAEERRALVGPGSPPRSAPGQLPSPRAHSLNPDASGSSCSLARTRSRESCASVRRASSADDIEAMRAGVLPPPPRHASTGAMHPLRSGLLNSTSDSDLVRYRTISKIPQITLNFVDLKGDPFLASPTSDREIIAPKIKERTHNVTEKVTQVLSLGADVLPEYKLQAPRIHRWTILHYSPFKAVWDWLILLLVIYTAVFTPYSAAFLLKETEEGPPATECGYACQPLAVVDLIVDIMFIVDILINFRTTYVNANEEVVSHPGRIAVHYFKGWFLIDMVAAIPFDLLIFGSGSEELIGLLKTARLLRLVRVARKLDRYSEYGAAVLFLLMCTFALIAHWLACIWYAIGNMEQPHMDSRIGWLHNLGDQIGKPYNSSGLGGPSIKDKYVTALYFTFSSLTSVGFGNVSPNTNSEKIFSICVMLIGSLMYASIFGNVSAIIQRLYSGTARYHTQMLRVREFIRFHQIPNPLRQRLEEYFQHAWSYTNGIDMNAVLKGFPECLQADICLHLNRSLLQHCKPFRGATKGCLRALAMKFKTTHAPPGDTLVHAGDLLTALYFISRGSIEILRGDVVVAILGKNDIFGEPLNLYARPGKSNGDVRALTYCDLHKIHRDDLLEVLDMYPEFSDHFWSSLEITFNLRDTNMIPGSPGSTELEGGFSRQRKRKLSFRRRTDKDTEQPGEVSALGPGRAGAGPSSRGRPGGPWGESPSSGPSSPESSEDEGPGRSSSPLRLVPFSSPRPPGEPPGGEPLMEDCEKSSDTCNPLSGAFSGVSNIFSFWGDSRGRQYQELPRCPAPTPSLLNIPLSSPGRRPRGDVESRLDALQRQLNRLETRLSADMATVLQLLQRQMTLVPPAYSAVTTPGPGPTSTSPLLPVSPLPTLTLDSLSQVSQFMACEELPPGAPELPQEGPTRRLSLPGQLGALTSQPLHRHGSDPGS
Description: Inhibition of the hERG channel (manual patch clamp assay). The following applies: HEK293 cells stably transfected with hERG cDNA, whole-cell patch clamp, tail current. It is filed as cell-based. From the text: The hERG patch clamp assay was done according to standard procedures used in Genetic Toxicology and Safety Pharmacology, based on recommendations and descriptions of methods in the literature, and according to current guidelines (ICH S7B, The non clinical evaluation of the potential for delayed ventricular repolarization (QT interval prolongation) by human pharmaceuticals, 2005). The purpose of the study is to assess the effect of the test item ABC123 on tail current recorded from HEK293 cells stably transfected with hERG cDNA. The HEK293 cells, which have been stably transfected with hERG cDNA, are a model considered to be suitable for this purpose (Zhou et al., 1998). Repolarisation of cardiac ventricular myocytes is mainly due to outward potassium currents. The most important current in humans is the delayed rectifier potassium current, IK, which has both rapidly and slowly activating components (IKr and IKs) (Sanguinetti and Jurkiewicz, 1990). The human ether-a-gogo-related-gene (hERG) encodes the major protein underlying IKr. Thus, inhibition of hERG potassium channels may lead to delayed cardiac repolarisation (Sanguinetti et al., 1995). Prolongation of cardiac repolarisation is a side effect that can be associated with some drug therapies. This proarrhythmic alteration is characterised by a prolongation of the QT interval in the surface electrocardiogram and is of particular concern because it may lead to the development of polymorphic ventricular arrhythmias like torsade de pointes (for review see: Vandenberg, Walker and Campbell, 2001). […] HERG HEK (HEK293 cells stably transfected with hERG cDNA) obtained from the University of Wisconsin were used. For the experiments the cells were plated onto sterile Thermanox plastic coverslips (Nalge Nunc International) in 6-well plates. The dishes were stored in a humidified, gassed incubator. The coverslips with cells were transferred to the recording chamber and continuously superfused (at approximately 1-2 ml/min) with vehicle. The temperature of the vehicle in the bath chamber was regulated by temperature controllers to 35° C.±2.0° C. hERG currents were measured in the whole-cell patch-clamp configuration. Once a stable patch clamp configuration was achieved, recording commenced in voltage-clamp mode, with the cell initially clamped at -75 mV. hERG current was observed and recorded if a stable hERG tail current response could be induced. […] The hERG HEK293 cells were treated approximately 9 min with the test item. The following voltage protocol was applied to induce hERG currents: The step from -75 mV to +10 mV activates an outward current (i.e. current flows out of the cell) and the step from +10 mV to -40 mV produces the tail current (the tail current represents the time taken for the current to turn off). […] The leak current was recorded and subtracted by a P/3n pulse between the voltage pulses (0.1 Hz).
On the technique in general: Block of hERG is tested as a sign of cardiac risk.

The structures appear in SMILES notation.

Consider `Cn1ncc2c(Nc3nc(N[C@@H]4CCCC[C@@H]4N)nnc3C(N)=O)cccc21` [Example 2.1, 3-((1R,2S)-2-Amino-cyclohexylamino)-5-(1-methyl-1H-indazol-4-ylamino)-[1,2,4]triazine-6-carboxylic acid amide], for which the IC50 – broadly, the concentration needed to halve the response being measured – in data set [1] was found to be 12 nM; in data set [2], 509 nM; in data set [3] it was 121 nM.

Regarding `NC(=O)c1nnc(N[C@@H]2CCCC[C@@H]2N)nc1Nc1cc(F)cc2cc[nH]c12` [Example 2.6, 3-((1R,2S)-2-Amino-cyclohexylamino)-5-(5-fluoro-1H-indol-7-ylamino)-[1,2,4]triazine-6-carboxylic acid amide], the IC50 in data set [1] came out at 4.6 nM; in data set [2], 562 nM; in data set [3] it was 37 nM.

Turning to `Cn1cc2c(Nc3nc(N[C@@H]4CCCC[C@@H]4N)nnc3C(N)=O)cccc2n1` [Example 2.2, 3-((1R,2S)-2-Amino-cyclohexylamino)-5-(2-methyl-2H-indazol-4-ylamino)-[1,2,4]triazine-6-carboxylic acid amide], the half-maximal inhibitory concentration (IC50) is 394 nM in data set [2] and 58 nM in data set [3].

In the case of `Cn1ccc2c(Nc3nc(N[C@@H]4CCCC[C@@H]4N)cnc3C(N)=O)cccc21` [Example 3.1, 5-((1R,2S)-2-Amino-cyclohexylamino)-3-(1-methyl-1H-indol-4-ylamino)-pyrazine-2-carboxylic acid amide], the results for the IC50 in data set [1] and in data set [3] were 0.5 nM and 25 nM, respectively.

Take `Cc1c[nH]c2c(Nc3nc(N[C@@H]4CCCC[C@@H]4N)nnc3C(N)=O)cccc12` [Example 1.3, 3-((1R,2S)-2-Amino-cyclohexylamino)-5-(3-methyl-1H-indol-7-ylamino)-[1,2,4]triazine-6-carboxylic acid amide]: the half-inhibitory concentration (IC50) in data set [1] worked out at 3.5 nM; in data set [2], 447 nM; in data set [3] it was 72 nM. For the same molecule, the inhibition (commonly the relative decrease from the control value, in per cent) at 9 min, 3 µM in data set [4] (at 3 uM) was 24 ± 3%. Also, the inhibition at 9 min, 10 µM in data set [4] (at 10 uM) was 37 ± 6%. The molecule also returned an inhibition at 9 min, 30 µM in data set [4] (at 30 uM) of 74 ± 6%.

Regarding `N#Cc1c[nH]c2c(Nc3nc(N[C@@H]4CCCC[C@@H]4N)nnc3C(N)=O)cccc12` [Example 2.4, 3-((1R,2S)-2-Amino-cyclohexylamino)-5-(3-cyano-1H-indol-7-ylamino)-[1,2,4]triazine-6-carboxylic acid amide], the half-inhibitory concentration (IC50) in data set [1] is 86 nM; in data set [3], 890 nM.

Consider `NC(=O)c1nnc(N[C@@H]2CCCC[C@@H]2N)nc1Nc1cccc2[nH]ccc12` [Example 1.4, 3-((1R,2S)-2-Amino-cyclohexylamino)-5-(1H-indol-4-ylamino)-[1,2,4]triazine-6-carboxylic acid amide], for which the IC50 in data set [1] came to 1 nM; in data set [2] it was 177 nM; in data set [3], 14 nM.

In the case of `Cc1c[nH]c2c(Nc3nc(N[C@@H]4CCCC[C@@H]4N)nnc3C(N)=O)cc(F)cc12` [Example 1.2, 3-((1R,2S)-2-Amino-cyclohexylamino)-5-(5-fluoro-3-methyl-1H-indol-7-ylamino)-[1,2,4]triazine-6-carboxylic acid amide], the figures for the IC50 in data set [1], in data set [2] and in data set [3] were 0.8 nM, 491 nM and 63 nM, respectively.

With `NC(=O)c1nnc(N[C@@H]2CCCC[C@@H]2N)nc1Nc1cccc2[nH]ncc12` [Example 2.5, 3-((1R,2S)-2-Amino-cyclohexylamino)-5-(1H-indazol-4-ylamino)-[1,2,4]triazine-6-carboxylic acid amide], the IC50 in data set [1] is 30 nM; in data set [2], 671 nM; in data set [3] it was 106 nM.

As for `Cc1c[nH]c2c(Nc3nc(N[C@@H]4CCCC[C@@H]4N)cnc3C(N)=O)cccc12` [Example 4.2, 5-((1R,2S)-2-Amino-cyclohexylamino)-3-(3-methyl-1H-indol-7-ylamino)-pyrazine-2-carboxylic acid amide], the IC50 was determined as 1 nM in data set [1], 596 nM in data set [2] and 36 nM in data set [3].

Take `NC(=O)c1ncc(N[C@@H]2CCCC[C@@H]2N)nc1Nc1cccc2cc[nH]c12` [Example 4.1, 5-((1R,2S)-2-Amino-cyclohexylamino)-3-(1H-indol-7-ylamino)-pyrazine-2-carboxylic acid amide]: the IC50 in data set [1] was found to be 2.7 nM; in data set [2] it was 311 nM; in data set [3] it was 28 nM.

With `NC(=O)c1nnc(N[C@@H]2CCCC[C@@H]2N)nc1Nc1cccc2c(Cl)c[nH]c12` [Example 2.3, 3-((1R,2S)-2-Amino-cyclohexylamino)-5-(3-chloro-1H-indol-7-ylamino)-[1,2,4]triazine-6-carboxylic acid amide], the IC50 in data set [1] stood at 11 nM; in data set [3], 393 nM.
